What was measured:
[1] = system: in vitro co-cultured, patient derived, MSC/HSC cells; experiment: Erythroid differentiation in in vitro co-cultured, patient derived MSC/HSC cells; format: cell-based, human; conditions: 2 μM PXS-5505, 100 nM 5-AZA daily; flow cytometry after 14 days; n=3; FIG. 1
Excerpt: Healthy CD34+ cells were isolated from hip replacement surgery bone specimen (old CD34+ cells) or collected by iliac crest puncture of healthy volunteers (young CD34+ cells). Approval for collection of patient samples was given by the Institutional Review Board of the Medical Faculty Mannheim, University of Heidelberg, Germany, in accordance with the declaration of Helsinki. All patients were informed and provided written consent for sample collection. Mononuclear cells (MNC) were isolated from bone marrow by Ficoll density gradient. CD34+ cells from MNC were isolated using MACS enrichment columns (Miltenyi Biotec, Bergisch Gladbach, Germany) according to the manufacturer's instructions as described. Purity of the CD34+ populations were confirmed by FACS analysis to be >95%. These were then viably frozen and thawed immediately before xenotransplantation.
Mesenchymal stromal cells (MSC) were isolated from residual diagnostic material and selected via their plastic adherence properties in culture. MSC were expanded in NH-Expansion medium (Miltenyi Biotec) and cultured to a maximum of 4 passages. Ex-vivo expanded MSCs were FACS analyzed to confirm adherence to the minimal criteria for defining multipotent mesenchymal stromal cells as described in [Medyouf, 2014]. […]

[2] = system: erythroid differentiation (the CD235a+ and CD45− population) in the bone marrow collected from xenotransplanted mice; experiment: Xenotransplantation model: erythroid differentiation from bone marrow of xenotransplanted mice; format: in vivo; conditions: 5-AZA 75 mg/m2 5+2 schedule, 3 cycles; PXS-5505 30 mg/kg every 48 h; 3 months; FIG. 2
Protocol: Female immunocompromised mice (NSG and NSGS, Jackson Laboratory) aged 6-8 week old were sub-lethally irradiated (200 cGy) before intrafemoral injections with a mix of CD34+ and MSCs cells (1×10^5:5×10^5) from primary myelofibrosis patients (with grade 3 fibrosis) as described previously [Medyouf, 2014]. The mice were treated with 5-AZA (75 mg/m^2 5+2 schedule, 3 cycles in total) and/or PXS-5505 (30 mg/kg every 48 h for the duration of 5-AZA treatment) for 3 months. At endpoint human CD45+ cells were FACS-sorted from mouse bone marrow. The CD45+ cells were differentiated in the medium supplemented with 5 U/mL EPO, 100 ng/mL SCF and 5 ng/mL IL-3 for 21 days followed by flow cytometry analysis for CD235a and CD45 markers as described previously.
Furthermore, it presents the rescue erythroid differentiation for a variety of different disease subtypes of myelodysplastic syndrome, chronic myelomonocytic leukemia and acute myeloid leukemia.

NC/C=C(\F)CS(=O)(=O)c1cccc2cccnc12 [PXS-5505]
erythroid differentiation (CD235a+, CD45− cells) [1]: could rescue erythropoiesis
erythroid differentiation (CD235a+ and CD45− population) in bone marrow from xenotransplanted mice [2]: could rescue erythropoiesis

From patent US12233056B2, “Lysyl oxidase inhibitors for treating myeloid malignancies” (Syntara Limited, priority 2022, dated 2025)
